Assay results published in US9341616B2, “Sweet taste receptor chimeric proteins and use thereof” (AJINOMOTO CO., INC., priority 2014, dated 2016).
Residues, ends and D or L forms follow the SMILES beside them.

target: h-mT1R2-481/T1R3mosaicC (UniProt Q8TE23+Q925D8, A537S/A558R/A564V/A568V/A570T/A588V/A645S/A649T/A658V/A698V/A702T/A782V/A793V/A807V/C582S/C678S/D172E/D176A/D217E/E221Q/E530V/E534N/E542M/E548N/E725V/F525Y/F541I/F612A/F622V/F665L/F695L/G696N/G701T/H484Y/H528R/H728R/I481V/I486P/I490V/I510L/I518V/I595M/I617V/I643V/I645L/I692L/I695G/I706V/I740A/I803L/K504M/K555R/K565R/K626T/K714N/K818R/K827G/L521P/L560F/L571I/L578I/L610P/L631F/L636F/L639V/L684P/L688V/L702I/L734M/L735F/L800F/L823M/L825Q/M492I/M616G/M644L/M682V/M690V/M744T/M748V/N203E/N231A/N540G/N541S/N547G/N675D/N721H/P545F/P561R/P564S/P638T/P824S/Q195T/Q536L/Q546K/Q550E/Q555R/Q611L/Q676H/Q757R/Q795R/Q831P/R173L/R498S/R632Q/R667S/S168G/S205G/S228A/S501P/S547N/S550A/S576L/S595F/S610P/S628F/S635P/S637R/S663R/S670G/S679G/S681F/S703N/S717H/S727G/S784D/S804G/T199E/T529S/T542A/T549I/T609V/T629S/T642S/T663I/T694M/T705I/T706G/T716I/T813A/V197A/V198A/V508I/V512P/V557A/V573A/V584A/V585L/V613L/V617M/V673M/V687A/V691A/V694A/V718L/V718M/V723A/V729T/V738A/V741L/V774I/V791M/V805L/V812A/V821L/W599R/W676R/W824R/Y533F/Y615F/Y671F/Y680C/Y769S/Y783H/Y794L); conditions: Table 6; genes h-mT481/T1R3mC (h-mT1R2-481, T1R3mC); HEK293E cells
Sequence (Q8TE23 with tags, fused parts or gaps with the stated changes limits assumed): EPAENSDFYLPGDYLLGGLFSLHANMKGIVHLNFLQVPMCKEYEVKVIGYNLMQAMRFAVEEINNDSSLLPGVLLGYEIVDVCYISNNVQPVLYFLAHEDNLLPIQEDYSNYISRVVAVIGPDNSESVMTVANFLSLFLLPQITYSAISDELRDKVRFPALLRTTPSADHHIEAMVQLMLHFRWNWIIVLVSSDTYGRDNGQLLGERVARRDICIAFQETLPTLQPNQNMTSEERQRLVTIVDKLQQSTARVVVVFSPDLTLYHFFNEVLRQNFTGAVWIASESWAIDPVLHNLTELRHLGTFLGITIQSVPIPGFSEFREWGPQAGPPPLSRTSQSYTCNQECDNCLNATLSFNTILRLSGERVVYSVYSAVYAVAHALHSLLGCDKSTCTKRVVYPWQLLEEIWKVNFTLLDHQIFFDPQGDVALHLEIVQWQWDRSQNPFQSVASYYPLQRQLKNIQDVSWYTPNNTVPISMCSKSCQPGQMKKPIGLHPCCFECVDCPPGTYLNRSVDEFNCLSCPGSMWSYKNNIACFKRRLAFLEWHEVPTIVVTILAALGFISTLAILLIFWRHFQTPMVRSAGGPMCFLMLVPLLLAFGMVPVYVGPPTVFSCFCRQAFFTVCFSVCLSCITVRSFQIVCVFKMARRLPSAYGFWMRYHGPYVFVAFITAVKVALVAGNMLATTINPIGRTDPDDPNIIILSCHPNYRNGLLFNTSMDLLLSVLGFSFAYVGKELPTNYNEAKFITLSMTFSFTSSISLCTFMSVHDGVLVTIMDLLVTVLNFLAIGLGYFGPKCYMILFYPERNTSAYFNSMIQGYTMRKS
Sequence (Q925D8 with tags, fused parts or gaps with the stated changes limits assumed): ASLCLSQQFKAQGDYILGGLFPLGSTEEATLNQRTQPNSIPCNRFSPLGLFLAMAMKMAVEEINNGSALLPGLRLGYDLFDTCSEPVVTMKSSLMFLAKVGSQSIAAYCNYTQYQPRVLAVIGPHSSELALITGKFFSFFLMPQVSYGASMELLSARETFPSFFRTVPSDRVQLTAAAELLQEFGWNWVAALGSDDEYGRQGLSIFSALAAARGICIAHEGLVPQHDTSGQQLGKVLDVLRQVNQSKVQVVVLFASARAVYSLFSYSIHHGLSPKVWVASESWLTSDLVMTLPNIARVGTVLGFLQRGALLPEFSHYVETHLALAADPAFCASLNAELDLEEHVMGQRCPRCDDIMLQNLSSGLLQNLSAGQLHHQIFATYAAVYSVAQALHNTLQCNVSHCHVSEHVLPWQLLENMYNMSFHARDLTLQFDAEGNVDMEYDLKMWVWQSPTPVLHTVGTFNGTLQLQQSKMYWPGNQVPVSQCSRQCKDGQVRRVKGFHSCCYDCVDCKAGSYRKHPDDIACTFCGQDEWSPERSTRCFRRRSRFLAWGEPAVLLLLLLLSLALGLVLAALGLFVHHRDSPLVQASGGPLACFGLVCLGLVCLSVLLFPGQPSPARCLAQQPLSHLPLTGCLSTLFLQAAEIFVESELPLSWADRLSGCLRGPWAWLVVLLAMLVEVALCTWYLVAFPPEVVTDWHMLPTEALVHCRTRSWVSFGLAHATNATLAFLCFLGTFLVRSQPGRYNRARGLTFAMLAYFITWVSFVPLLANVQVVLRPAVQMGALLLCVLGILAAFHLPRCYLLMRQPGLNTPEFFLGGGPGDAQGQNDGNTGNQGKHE

Going from COC(=O)[C@H](Cc1ccccc1)NC(=O)[C@H](CC(=O)O)NCCC(C)(C)C [Neotame, neotame] to COC(=O)[C@H](Cc1ccccc1)NC(=O)[C@@H](N)CC(=O)O [Aspartame, aspartame] (HELM PEPTIDE1{D.F.[CO[*:1]]}$$$$V2.0), the S/N falls from 8.4 to 6.3.

First: COC(=O)[C@H](Cc1ccccc1)NC(=O)[C@H](CC(=O)O)NCCCc1ccc(OC)c(O)c1 [Advantame, advantame]
Second: C[C@H](NC(=Nc1ccc(C#N)cc1)NCC(=O)O)c1ccccc1 [SC-45647, [3-[(S)-1-phenylethyl]-2-(4-cyanophenyl)guanidino]acetic acid]
The S/N of the first is higher: 9.9 for the first, 6.1 for the second.

First: OC[C@H]1O[C@@](CO)(O[C@H]2O[C@H](CO)[C@@H](O)[C@H](O)[C@H]2O)[C@@H](O)[C@@H]1O [Sucrose, sucrose]
Second: OC[C@H]1O[C@H](O[C@]2(CCl)O[C@H](CCl)[C@@H](O)[C@@H]2O)[C@H](O)[C@@H](O)[C@H]1Cl [Sucralose, sucralose]
The S/N of the first is lower: 3.4 for the first, 4.8 for the second.

First: O=C1NS(=O)(=O)c2ccccc21.[Na] [Saccharin Na, sodium saccharin]
Second: CC1=CC(=O)NS(=O)(=O)O1 [Acesulfame K, acesulfame potassium]
The S/N of the first is higher: 4.5 for the first, 3.2 for the second.

COc1ccc(CCC(=O)c2c(O)cc(O[C@@H]3O[C@H](CO)[C@@H](O)[C@H](O)[C@H]3O[C@@H]3O[C@@H](C)[C@H](O)[C@@H](O)[C@H]3O)cc2O)cc1O [NHDC, neohesperidin dihydrochalcone] showed a S/N of 3.9.
